Patent US20230301300A1, “HERBICIDAL COMPOSITIONS” (SYNGENTA CROP PROTECTION AG, priority 2020, published 2023)

Key:
Experiment in all cases: B2 Post-Emergence Efficacy - Test 2
Assay type in all cases: in vivo
[1] = test system: Echinochloa crus galli (ECHCG); settings: 15 days after application, 0=no damage, 100=total kill
How it was run: (§1)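 Herbicidal effect was rated visually from 0 (no damage) to 100 (complete kill) fifteen days after treatment. Seedlings had been raised for 12 days under controlled glasshouse conditions and then sprayed with the active ingredient formulated in IF50, diluted in water with 0.2% v/v Genapol X080 adjuvant.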

[2] = test system: Bidens pilosa (BIDPI); settings: 15 days after application, 0-100 scale
How it was run: as §1

[3] = test system: Digitaria sanguinalis (DIGSA); settings: 15 days after application, 0=no damage, 100=total kill
How it was run: as §1

[4] = test system: Abutilon theophrasti (ABUTH); settings: 15 days after application, 0-100 scale
How it was run: as §1

[5] = test system: Alopecurus myosuroides (ALOMY); settings: 15 days after application, 0-100 scale
How it was run: as §1

[6] = test system: Lolium perenne (LOLPE); settings: 15 days after application, 0-100 scale
How it was run: as §1

[7] = test system: Stellaria media (STEME); settings: 15 days after application, 0-100 scale
How it was run: as §1

[8] = test system: Bromus tectorum (BROTE); settings: 15 days after application, 0-100 scale
How it was run: as §1

[9] = test system: Sinapis arvensis (SINAR); settings: 15 days after application, 0-100 scale
How it was run: as §1

[10] = test system: Setaria faberi (SETFA); settings: 15 days after application, 0=no damage, 100=total kill
How it was run: as §1

[11] = test system: Eleisine indica (ELEIN); settings: 15 days after application, 0=no damage, 100=total kill
How it was run: as §1

[12] = test system: Triticum aestivum (TRZAW); settings: 15 days after application, 0-100 scale
How it was run: as §1

[13] = test system: Euphorbia hetrophylla (EPHHL); settings: 15 days after application, 0-100 scale
How it was run: as §1

[14] = test system: Zea mays (ZEAMX); settings: 15 days after application; for Herbicidal activity ZEAMX: 0-100 scale; for Herbicidal activity on a 0-100 scale, ZEAMX: 0=no damage, 100=total kill
How it was run: as §1

[15] = test system: Hordeum vulgare (HORVW); settings: 15 days after application, 0-100 scale
How it was run: as §1

[16] = test system: Sorghum bicolour (SORVU); settings: 15 days after application, 0=no damage, 100=total kill
How it was run: as §1

[17] = test system: Chenopodium album (CHEAL); settings: 15 days after application, 0-100 scale
How it was run: as §1

[18] = test system: Brachiaria plantaginea (BRAPL); settings: 15 days after application, 0=no damage, 100=total kill
How it was run: as §1

For `Cc1nn(C)c(=O)c(-c2c(F)ccc(Cl)c2CCc2ccc(C#N)cc2)c1O` [Compound 1.024, 4-[3-chloro-6-fluoro-2-[2-[4-(cyano)phenyl]ethyl]phenyl]-5-hydroxy-2,6-dimethyl-pyridazin-3-one], the “Herbicidal activity on a 0-100 scale, ECHCG” value (“Herbicidal activity … ECHCG” below) ([1]; 15 g/Ha) was 70, the “Herbicidal activity … ECHCG” value ([1]; 30 g/Ha) was 80 and the “Herbicidal activity … ECHCG” value ([1]; 60 g/Ha) was 80. For the same compound, the “Herbicidal activity … ECHCG” value ([1]; 125 g/Ha) was 90, the “Herbicidal activity … ECHCG” value ([1]; 250 g/Ha) was 90 and the “Herbicidal activity … ECHCG” value ([1]; 500 g/Ha) was 100. The “Herbicidal activity BIDPI” value ([2]; 15 g/Ha) was 80, the “Herbicidal activity BIDPI” value ([2]; 30 g/Ha) was 80 and the “Herbicidal activity BIDPI” value ([2]; 60 g/Ha) was 80. The “Herbicidal activity BIDPI” value ([2]; 125 g/Ha) was 80, the “Herbicidal activity BIDPI” value ([2]; 250 g/Ha) was 80 and the “Herbicidal activity BIDPI” value ([2]; 500 g/Ha) was 90. For the same compound, the “Herbicidal activity on a 0-100 scale, DIGSA” value (“Herbicidal activity … DIGSA” below) ([3]; 15 g/Ha) was 0, the “Herbicidal activity … DIGSA” value ([3]; 30 g/Ha) was 20 and the “Herbicidal activity … DIGSA” value ([3]; 60 g/Ha) was 40. The “Herbicidal activity … DIGSA” value ([3]; 125 g/Ha) was 80, the “Herbicidal activity … DIGSA” value ([3]; 250 g/Ha) was 90 and the “Herbicidal activity … DIGSA” value ([3]; 500 g/Ha) was 90. The “Herbicidal activity ABUTH” value ([4]; 15 g/Ha) was 90, the “Herbicidal activity ABUTH” value ([4]; 30 g/Ha) was 90 and the “Herbicidal activity ABUTH” value ([4]; 60 g/Ha) was 100. The “Herbicidal activity ABUTH” value ([4]; 125 g/Ha) was 100, the “Herbicidal activity ABUTH” value ([4]; 250 g/Ha) was 100 and the “Herbicidal activity ABUTH” value ([4]; 500 g/Ha) was 100. For the same compound, the “Herbicidal activity ALOMY” value ([5]; 15 g/Ha) was 10, the “Herbicidal activity ALOMY” value ([5]; 30 g/Ha) was 30 and the “Herbicidal activity ALOMY” value ([5]; 60 g/Ha) was 50. The “Herbicidal activity ALOMY” value ([5]; 125 g/Ha) was 70, the “Herbicidal activity ALOMY” value ([5]; 250 g/Ha) was 70 and the “Herbicidal activity ALOMY” value ([5]; 500 g/Ha) was 70. The “Herbicidal activity LOLPE” value ([6]; 15 g/Ha) was 10, the “Herbicidal activity LOLPE” value ([6]; 30 g/Ha) was 70 and the “Herbicidal activity LOLPE” value ([6]; 60 g/Ha) was 70. The “Herbicidal activity LOLPE” value ([6]; 125 g/Ha) was 90, the “Herbicidal activity LOLPE” value ([6]; 250 g/Ha) was 90 and the “Herbicidal activity LOLPE” value ([6]; 500 g/Ha) was 90. The “Herbicidal activity STEME” value ([7]; 15 g/Ha) was 90, the “Herbicidal activity STEME” value ([7]; 30 g/Ha) was 90 and the “Herbicidal activity STEME” value ([7]; 60 g/Ha) was 90. The “Herbicidal activity STEME” value ([7]; 125 g/Ha) was 90, the “Herbicidal activity STEME” value ([7]; 250 g/Ha) was 90 and the “Herbicidal activity STEME” value ([7]; 500 g/Ha) was 100. For the same compound, the “Herbicidal activity BROTE” value ([8]; 15 g/Ha) was 0, the “Herbicidal activity BROTE” value ([8]; 30 g/Ha) was 0 and the “Herbicidal activity BROTE” value ([8]; 60 g/Ha) was 10. The “Herbicidal activity BROTE” value ([8]; 125 g/Ha) was 20, the “Herbicidal activity BROTE” value ([8]; 250 g/Ha) was 40 and the “Herbicidal activity BROTE” value ([8]; 500 g/Ha) was 70. For the same compound, the “Herbicidal activity SINAR” value ([9]; 15 g/Ha) was 80, the “Herbicidal activity SINAR” value ([9]; 30 g/Ha) was 80 and the “Herbicidal activity SINAR” value ([9]; 60 g/Ha) was 80. The “Herbicidal activity SINAR” value ([9]; 250 g/Ha) was 90, the “Herbicidal activity SINAR” value ([9]; 500 g/Ha) was 100 and the “Herbicidal activity on a 0-100 scale, SETFA” value (“Herbicidal activity … SETFA” below) ([10]; 15 g/Ha) was 20. For the same compound, the “Herbicidal activity … SETFA” value ([10]; 30 g/Ha) was 70, the “Herbicidal activity … SETFA” value ([10]; 60 g/Ha) was 80 and the “Herbicidal activity … SETFA” value ([10]; 125 g/Ha) was 90. The “Herbicidal activity … SETFA” value ([10]; 250 g/Ha) was 90, the “Herbicidal activity … SETFA” value ([10]; 500 g/Ha) was 100 and the “Herbicidal activity on a 0-100 scale, ELEIN” value (“Herbicidal activity … ELEIN” below) ([11]; 15 g/Ha) was 0. The “Herbicidal activity … ELEIN” value ([11]; 30 g/Ha) was 40, the “Herbicidal activity … ELEIN” value ([11]; 60 g/Ha) was 40 and the “Herbicidal activity … ELEIN” value ([11]; 125 g/Ha) was 60. The “Herbicidal activity … ELEIN” value ([11]; 250 g/Ha) was 80, the “Herbicidal activity … ELEIN” value ([11]; 500 g/Ha) was 80 and the “Herbicidal activity TRZAW” value ([12]; 15 g/Ha) was 0. For the same compound, the “Herbicidal activity TRZAW” value ([12]; 30 g/Ha) was 0, the “Herbicidal activity TRZAW” value ([12]; 60 g/Ha) was 20 and the “Herbicidal activity TRZAW” value ([12]; 125 g/Ha) was 30. For the same compound, the “Herbicidal activity TRZAW” value ([12]; 250 g/Ha) was 60, the “Herbicidal activity TRZAW” value ([12]; 500 g/Ha) was 70 and the “Herbicidal activity EPHHL” value ([13]; 15 g/Ha) was 70. For the same compound, the “Herbicidal activity EPHHL” value ([13]; 30 g/Ha) was 90, the “Herbicidal activity EPHHL” value ([13]; 60 g/Ha) was 90 and the “Herbicidal activity EPHHL” value ([13]; 125 g/Ha) was 90. For the same compound, the “Herbicidal activity EPHHL” value ([13]; 250 g/Ha) was 100, the “Herbicidal activity EPHHL” value ([13]; 500 g/Ha) was 100 and the “Herbicidal activity ZEAMX” value ([14]; 15 g/Ha) was 0. For the same compound, the “Herbicidal activity on a 0-100 scale, ZEAMX” value ([14]; 15 g/Ha) was 0, the “Herbicidal activity ZEAMX” value ([14]; 30 g/Ha) was 10 and the “Herbicidal activity on a 0-100 scale, ZEAMX” value ([14]; 30 g/Ha) was 10. The “Herbicidal activity ZEAMX” value ([14]; 60 g/Ha) was 20, the “Herbicidal activity on a 0-100 scale, ZEAMX” value ([14]; 60 g/Ha) was 20 and the “Herbicidal activity ZEAMX” value ([14]; 125 g/Ha) was 40. For the same compound, the “Herbicidal activity on a 0-100 scale, ZEAMX” value ([14]; 125 g/Ha) was 40, the “Herbicidal activity ZEAMX” value ([14]; 250 g/Ha) was 70 and the “Herbicidal activity on a 0-100 scale, ZEAMX” value ([14]; 250 g/Ha) was 70. The “Herbicidal activity ZEAMX” value ([14]; 500 g/Ha) was 100, the “Herbicidal activity on a 0-100 scale, ZEAMX” value ([14]; 500 g/Ha) was 100 and the “Herbicidal activity HORVW” value ([15]; 15 g/Ha) was 0. For the same compound, the “Herbicidal activity HORVW” value ([15]; 30 g/Ha) was 10, the “Herbicidal activity HORVW” value ([15]; 60 g/Ha) was 10 and the “Herbicidal activity HORVW” value ([15]; 125 g/Ha) was 10. The “Herbicidal activity HORVW” value ([15]; 250 g/Ha) was 10, the “Herbicidal activity HORVW” value ([15]; 500 g/Ha) was 20 and the “Herbicidal activity on a 0-100 scale, SORVU” value (“Herbicidal activity … SORVU” below) ([16]; 15 g/Ha) was 0. The “Herbicidal activity … SORVU” value ([16]; 30 g/Ha) was 10, the “Herbicidal activity … SORVU” value ([16]; 60 g/Ha) was 70 and the “Herbicidal activity … SORVU” value ([16]; 125 g/Ha) was 80. The “Herbicidal activity … SORVU” value ([16]; 250 g/Ha) was 90, the “Herbicidal activity … SORVU” value ([16]; 500 g/Ha) was 100 and the “Herbicidal activity CHEAL” value ([17]; 15 g/Ha) was 60. For the same compound, the “Herbicidal activity CHEAL” value ([17]; 30 g/Ha) was 90, the “Herbicidal activity CHEAL” value ([17]; 60 g/Ha) was 90 and the “Herbicidal activity CHEAL” value ([17]; 125 g/Ha) was 90. The “Herbicidal activity CHEAL” value ([17]; 250 g/Ha) was 90, the “Herbicidal activity CHEAL” value ([17]; 500 g/Ha) was 100 and the “Herbicidal activity on a 0-100 scale, BRAPL” value (“Herbicidal activity … BRAPL” below) ([18]; 15 g/Ha) was 30. For the same compound, the “Herbicidal activity … BRAPL” value ([18]; 30 g/Ha) was 60, the “Herbicidal activity … BRAPL” value ([18]; 60 g/Ha) was 70 and the “Herbicidal activity … BRAPL” value ([18]; 125 g/Ha) was 70. The “Herbicidal activity … BRAPL” value ([18]; 250 g/Ha) was 70 and the “Herbicidal activity … BRAPL” value ([18]; 500 g/Ha) was 90.
